Earlier results as cited in patent publication US7601870B2, “Substituted aniline derivatives” (priority 2004, dated 2009).

Tests used:
[1] = test system: animal models of neuropathic pain; conditions: in vivo
[2] = test system: kainic acid-induced status epilepticus; conditions: rat
[3] = test system: animal models of anxiety-like behaviour; conditions: in vivo
[4] = test system: hippocampal kindling; conditions: rat
[5] = test system: K(+) current in neuronal cells
[6] = test system: seizures in epileptic patients; conditions: clinical trials
[7] = test system: amygdala kindling model of complex partial seizures; conditions: in vivo
[8] = test system: electrically induced seizures, seizures induced chemically by pentylenetetrazole, picrotoxin and NMDA, DBA/2 mouse; conditions: oral and intraperitoneal administration in rats and mice
[9] = test system: animal models of ethanol withdrawal syndrome; conditions: in vivo

CCOC(=O)Nc1ccc(NCc2ccc(F)cc2)cc1N [Retigabine, N-(2-amino-4-(4-fluorobenzylamino)-phenyl) carbamic acid ethyl ester]
effect in neuropathic pain models [1]: beneficial
limbic neurodegeneration and markers of apoptosis [2]: prevent limbic neurodegeneration and the expression of markers of apoptosis
activity in anxiety-like behaviour models [3]: active
progression of hippocampal kindling [4]: delay the progression of hippocampal kindling
activation of K(+) current [5]: activate a K(+) current
incidence of seizures [6]: effectiveness in reducing the incidence of seizures
activity in amygdala kindling model [7]: active
anticonvulsant activity [8]: active

NCC1(CC(=O)O)CCCCC1 [gabapentin]
effect in ethanol withdrawal syndrome models [9]: very effective
